Experimental data taken from patent US20250195477A1, “DEUTERATED IDAZOXAN AND METHODS OF USE THEREOF” (Terran Biosciences Inc., priority 2022, published 2025).

Experiments:
[1] = Metabolic stability in human liver microsomes; format: in vitro ADME; settings: pH 7.4, pooled human liver microsomes 0.5 mg/mL, test compound 3 μM, NADPH, 0, 5, 15, 30, 45 min, LC-MS/MS; for microsomal CLint at 3 μM: read-out: CLint (μL/min/mg protein)
[2] = Metabolic stability in human liver microsomes; format: in vitro ADME; settings: significant if half-life increase >=15% or CLint ratio (deuterated compound/idazoxan) >1.15 or <0.85
Protocol: Test compound (1 μM) was incubated with pooled liver microsomes.
Pooled liver microsomes were purchased from a reputable commercial supplier. Microsomes were stored at −80° C. prior to use.
A minus cofactor control incubation was included for each compound tested where 0.1 M phosphate buffer pH 7.4 was added instead of NADPH (minus NADPH). Two control compounds were included with each species. All incubations were performed singularly for each test compound.
The reactions were stopped by transferring incubate into acetonitrile at the appropriate time points, in a 1:3 ratio. The termination plates were centrifuged at 3,000 rpm for 20 min at 4° C. to precipitate the protein.
Following protein precipitation, the sample supernatants were combined in cassettes of up to 4 compounds, internal standard was added and samples analysed using generic LCMS/MS conditions.
From a plot of In peak area ratio (compound peak area/internal standard peak area) against time, the gradient of the line was determined. Subsequently, half-life and intrinsic clearance were calculated using the equations below:
where V=Incubation volume (μL)/Microsomal protein (mg)
Relevant control compounds were assessed, ensuring intrinsic clearance values fell within the specified limits (if available). Any failures were rejected and the assay repeated. The intrinsic clearance (CLint) of the test compound and standard error (SE CLint), t½ and n (number of time points used to calculate CLint) were returned.

[3] = background statement; species and route not given; cited from earlier work

Row | SMILES | half-life at 3 μM [1] [h] | microsomal CLint at 3 μM [1] [µL/min/mg] | differences in in vitro clearance and half-life compared to idazoxan [2] | idazoxan reaching systemic circulation [3]
1 | COc1ccc2c(c1)[C@]13CCCC[C@@H]1[C@H](C2)N(C)CC3 [Dextromethorphan, reference compound] | 0.48 | 48.1 |  | 
2 | [2H]c1ccc2c(c1)OC(C1=NC([2H])([2H])C([2H])([2H])N1)CO2 (centres unmarked) [Compound 50, 2-(2,3-dihydrobenzo[b][1,4]dioxin-2-yl-7-d)-4,5-dihydro-1H-imidazole-4,4,5,5-d4] | 913 | 0.0253 | significant differences | 
3 | [2H]c1ccc2c(c1)OCC(C1=NC([2H])([2H])C([2H])([2H])N1)O2 (centres unmarked) [Compound 49, 2-(2,3-dihydrobenzo[b][1,4]dioxin-2-yl-6-d)-4,5-dihydro-1H-imidazole-4,4,5,5-d4] | 15.5 | 1.49 | significant differences | 
4 | [2H]c1c([2H])c([2H])c2c(c1[2H])OCC(C1=NC([2H])([2H])C([2H])([2H])N1)O2 (centres unmarked) [Compound 52, 2-(2,3-dihydrobenzo[b][1,4]dioxin-2-yl-5,6,7,8-d4)-4,5-dihydro-1H-imidazole-4,4,5,5-d4] | 7.75 | 2.98 | significant differences | 
5 | [2H]C1([2H])N=C(C2COc3ccccc3O2)NC1([2H])[2H] (centres unmarked) [Compound 64, 2-(2,3-dihydrobenzo[b][1,4]dioxin-2-yl)-4,5-dihydro-1H-imidazole-4,4,5,5-d4] | 7.95 | 2.91 | significant differences | 
6 | [2H]c1cc2c(cc1[2H])OC(C1=NC([2H])([2H])C([2H])([2H])N1)CO2 (centres unmarked) [Compound 51, 2-(2,3-dihydrobenzo[b][1,4]dioxin-2-yl-6,7-d2)-4,5-dihydro-1H-imidazole-4,4,5,5-d4] | 13.8 | 1.68 | significant differences | 
7 | [2H]c1c([2H])c([2H])c2c(c1[2H])OCC(C1=NCCN1)O2 (centres unmarked) [Compound 4, 2-(2,3-dihydrobenzo[b][1,4]dioxin-2-yl-5,6,7,8-d4)-4,5-dihydro-1H-imidazole] | 8.93 | 2.59 | significant differences | 
8 | [2H]c1ccc2c(c1)OC(C1=NCCN1)CO2 (centres unmarked) [Compound 2, 2-(2,3-dihydrobenzo[b][1,4]dioxin-2-yl-7-d)-4,5-dihydro-1H-imidazole] | 21.8 | 1.06 | significant differences | 
9 | [2H]c1cc2c(cc1[2H])OC(C1=NCCN1)CO2 (centres unmarked) [Compound 3, 2-(2,3-dihydrobenzo[b][1,4]dioxin-2-yl-6,7-d2)-4,5-dihydro-1H-imidazole] | 10.4 | 2.23 | significant differences | 
10 | c1ccc2c(c1)OCC(C1=NCCN1)O2 (centres unmarked) [Idazoxan] | 4.28 | 5.39 |  | 27-28%
11 | [2H]c1ccc2c(c1)OCC(C1=NCCN1)O2 (centres unmarked) [Compound 1, 2-(2,3-dihydrobenzo[b][1,4]dioxin-2-yl-6-d)-4,5-dihydro-1H-imidazole] | 8.05 | 2.87 | significant differences | 
